# Experimental data as given in patent publication US20140135310A1, “SULPHONAMIDE DERIVATIVES OF ALICYCLIC AMINES FOR THE TREATMENT OF CENTRAL NERVOUS SYSTEM DISEASES” (Adamed Sp. z o.o., priority 2011, published 2014).
# What was measured:
# [1] = target: dopaminergic receptors D2 (Homo sapiens, UniProt P14416); test: Radioligand binding assay, dopaminergic D2 receptors; conditions: binding assay, test compound 1×10^−6 M
# Method in brief: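 Total binding is counted by scintillation and non-specific binding subtracted using an excess of unlabelled ligand. IC50 comes from a Hill-equation fit with slope factor; Ki follows Cheng–Prusoff.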
# [2] = target: dopaminergic receptors D3 (Homo sapiens, UniProt P35462); test: Radioligand binding assay, dopaminergic D3 receptors; conditions: test compound 1×10^−6 M
# Method in brief: (§1)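 Competition radioligand binding at human D2, D3 and D4.4 receptors, detected by scintillation counting; nonspecific binding defined with excess unlabelled ligand. Results as percent inhibition of control specific binding; IC50 by Hill-equation nonlinear regression; Ki via Cheng-Prusoff, with radioligand KD from Scatchard plot.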
# receptors D4.4 = target: T1, receptors D4.4 (Homo sapiens, UniProt P21917); test: Radioligand binding assay, dopaminergic D4 (D4.4) receptors; conditions: test compound 1×10^−6 M
# T1 sequence (P21917 1-419): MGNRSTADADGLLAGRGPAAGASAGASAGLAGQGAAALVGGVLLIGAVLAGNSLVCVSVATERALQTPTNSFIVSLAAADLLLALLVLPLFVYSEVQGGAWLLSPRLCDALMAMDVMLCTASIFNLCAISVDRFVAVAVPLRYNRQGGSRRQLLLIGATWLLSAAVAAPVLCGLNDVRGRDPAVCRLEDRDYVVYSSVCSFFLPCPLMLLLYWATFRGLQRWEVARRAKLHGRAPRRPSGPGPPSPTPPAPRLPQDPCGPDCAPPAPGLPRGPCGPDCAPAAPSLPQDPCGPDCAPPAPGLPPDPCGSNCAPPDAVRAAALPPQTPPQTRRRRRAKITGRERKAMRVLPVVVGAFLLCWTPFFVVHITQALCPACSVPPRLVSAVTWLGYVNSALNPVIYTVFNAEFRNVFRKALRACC
# Method in brief: as §1
# 5-HT2A receptor = target: T2, 5-HT2A receptor (Homo sapiens, UniProt P28223); test: Radioligand binding assay, serotoninergic 5-HT2A receptors; conditions: binding assay result in %, Table 5a
# T2 construct: purchased PerkinElmer
# Method in brief: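 Radioligand competition binding with scintillation counting; nonspecific binding defined by excess unlabelled ligand. Data as percent inhibition of control specific binding. IC50 by Hill-equation fit of competition curves; Ki by Cheng-Prusoff, with radioligand Kd from Scatchard plot.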
# 5-HT2C receptor = target: T3, 5-HT2C receptor (Homo sapiens, UniProt P28335); test: Radioligand binding assay, serotoninergic 5-HT2C receptors; conditions: test compound 1×10^−6 M
# T3 construct: expressed in transfected cells; host or cells: HEK-293 cells
# T3 sequence (P28335 33-458): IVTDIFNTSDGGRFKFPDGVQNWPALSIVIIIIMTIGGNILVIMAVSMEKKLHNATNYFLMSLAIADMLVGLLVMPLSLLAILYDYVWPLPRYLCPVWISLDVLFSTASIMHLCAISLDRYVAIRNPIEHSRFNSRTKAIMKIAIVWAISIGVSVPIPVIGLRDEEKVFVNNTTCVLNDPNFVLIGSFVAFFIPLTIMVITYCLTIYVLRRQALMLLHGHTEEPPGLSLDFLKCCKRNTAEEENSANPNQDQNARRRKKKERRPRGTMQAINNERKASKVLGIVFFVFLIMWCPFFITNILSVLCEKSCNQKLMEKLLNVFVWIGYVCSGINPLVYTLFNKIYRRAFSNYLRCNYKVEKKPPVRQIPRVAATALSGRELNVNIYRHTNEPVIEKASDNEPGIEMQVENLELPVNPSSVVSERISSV
# 5-HT6 receptor = target: T4, 5-HT6 receptor (Homo sapiens, UniProt P50406); test: Radioligand binding assay, serotoninergic 5-HT6 receptors; conditions: binding assay result in %, Table 5a;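 also: test compound at 1 µM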
# T4 construct: purchased PerkinElmer
# Method in brief: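 Values are Ki from Cheng–Prusoff, taking IC50 from Hill nonlinear regression of competition curves and KD from a Scatchard plot. Specific binding was total minus binding with excess unlabelled ligand. Radioligand displacement was detected by scintillation counting, and data were also reported as percent of control specific binding.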
# α2C adrenergic receptors = target: T5, α2C adrenergic receptors (Homo sapiens, UniProt P18825); test: Radioligand binding assay, adrenergic α2C receptors; conditions: test compound 1×10^−6 M
# T5 construct: expressed in transfected cells; host or cells: CHO cells
# T5 sequence (P18825 1-462): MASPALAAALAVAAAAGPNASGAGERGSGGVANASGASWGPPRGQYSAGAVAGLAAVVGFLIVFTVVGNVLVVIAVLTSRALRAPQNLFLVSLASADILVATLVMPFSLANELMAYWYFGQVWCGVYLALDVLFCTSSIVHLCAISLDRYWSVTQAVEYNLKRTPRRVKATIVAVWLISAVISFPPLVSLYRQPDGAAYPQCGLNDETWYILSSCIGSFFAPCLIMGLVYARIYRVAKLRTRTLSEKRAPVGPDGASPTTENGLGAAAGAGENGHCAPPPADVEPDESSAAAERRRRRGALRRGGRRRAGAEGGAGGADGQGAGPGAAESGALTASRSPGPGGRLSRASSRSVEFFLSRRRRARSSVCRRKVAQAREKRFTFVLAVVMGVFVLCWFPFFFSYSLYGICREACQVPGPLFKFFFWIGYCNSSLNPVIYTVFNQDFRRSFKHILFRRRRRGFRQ
# Method in brief: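 Competitive radioligand binding at human α2C receptors, with scintillation counting. Nonspecific binding defined with excess unlabelled ligand; results given as % inhibition of control specific binding. IC50 from Hill-equation fits of competition curves; Ki via Cheng-Prusoff using radioligand concentration and Scatchard-derived KD.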
# [3] = target: T6, H1 histaminergic receptors (Homo sapiens, UniProt P35367); test: Radioligand binding assay, histaminergic H1 receptors; conditions: human recombinant (HEK-293 cells), [3H]pyrilamine 1 nM
# T6 construct: expressed in transfected cells; host or cells: HEK-293 cells
# Method in brief: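 Competition binding at human H1 receptors; specific binding taken as total minus non-specific binding in excess unlabelled ligand, scintillation read-out. IC50 from Hill-equation fit of competition curves; Ki by Cheng-Prusoff using radioligand concentration and Kd (from Scatchard plot).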
# T4 sequence (P50406 whole entry): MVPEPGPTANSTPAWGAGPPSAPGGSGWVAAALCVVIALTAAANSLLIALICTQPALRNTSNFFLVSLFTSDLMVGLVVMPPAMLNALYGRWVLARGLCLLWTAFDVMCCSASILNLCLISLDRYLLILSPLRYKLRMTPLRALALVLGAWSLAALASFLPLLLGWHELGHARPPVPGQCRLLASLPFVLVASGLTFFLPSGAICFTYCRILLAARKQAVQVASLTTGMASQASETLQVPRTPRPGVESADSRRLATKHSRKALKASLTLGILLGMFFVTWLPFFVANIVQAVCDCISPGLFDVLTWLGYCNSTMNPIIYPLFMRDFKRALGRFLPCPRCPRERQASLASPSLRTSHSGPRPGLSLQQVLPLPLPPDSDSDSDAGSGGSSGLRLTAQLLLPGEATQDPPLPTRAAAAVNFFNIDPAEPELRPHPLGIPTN
# Sequence of dopaminergic receptors D3 (P35462 whole entry): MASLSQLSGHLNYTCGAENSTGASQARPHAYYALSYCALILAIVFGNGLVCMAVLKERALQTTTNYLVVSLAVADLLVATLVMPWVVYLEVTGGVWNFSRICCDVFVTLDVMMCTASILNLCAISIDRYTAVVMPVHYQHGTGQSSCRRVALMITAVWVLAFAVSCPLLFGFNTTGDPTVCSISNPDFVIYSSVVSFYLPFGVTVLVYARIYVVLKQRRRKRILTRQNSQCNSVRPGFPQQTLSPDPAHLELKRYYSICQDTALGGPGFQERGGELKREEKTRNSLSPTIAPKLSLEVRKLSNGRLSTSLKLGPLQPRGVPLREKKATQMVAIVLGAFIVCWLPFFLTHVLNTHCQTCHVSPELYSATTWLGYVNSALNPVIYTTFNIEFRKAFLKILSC
# T6 sequence (P35367 whole entry): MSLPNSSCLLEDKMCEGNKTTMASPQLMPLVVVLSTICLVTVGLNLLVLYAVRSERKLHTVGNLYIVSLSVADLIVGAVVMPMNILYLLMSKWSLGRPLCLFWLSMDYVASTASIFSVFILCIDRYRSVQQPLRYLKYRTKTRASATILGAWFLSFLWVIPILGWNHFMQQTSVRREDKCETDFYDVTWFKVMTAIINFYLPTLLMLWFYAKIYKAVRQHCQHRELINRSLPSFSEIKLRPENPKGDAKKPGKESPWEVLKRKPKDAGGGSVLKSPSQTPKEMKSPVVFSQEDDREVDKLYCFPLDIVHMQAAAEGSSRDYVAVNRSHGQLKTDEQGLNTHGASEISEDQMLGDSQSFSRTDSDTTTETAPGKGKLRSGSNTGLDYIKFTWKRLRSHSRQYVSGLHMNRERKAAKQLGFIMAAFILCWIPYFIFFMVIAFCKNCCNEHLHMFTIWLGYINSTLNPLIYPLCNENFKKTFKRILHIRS
# T2 sequence (P28223 whole entry): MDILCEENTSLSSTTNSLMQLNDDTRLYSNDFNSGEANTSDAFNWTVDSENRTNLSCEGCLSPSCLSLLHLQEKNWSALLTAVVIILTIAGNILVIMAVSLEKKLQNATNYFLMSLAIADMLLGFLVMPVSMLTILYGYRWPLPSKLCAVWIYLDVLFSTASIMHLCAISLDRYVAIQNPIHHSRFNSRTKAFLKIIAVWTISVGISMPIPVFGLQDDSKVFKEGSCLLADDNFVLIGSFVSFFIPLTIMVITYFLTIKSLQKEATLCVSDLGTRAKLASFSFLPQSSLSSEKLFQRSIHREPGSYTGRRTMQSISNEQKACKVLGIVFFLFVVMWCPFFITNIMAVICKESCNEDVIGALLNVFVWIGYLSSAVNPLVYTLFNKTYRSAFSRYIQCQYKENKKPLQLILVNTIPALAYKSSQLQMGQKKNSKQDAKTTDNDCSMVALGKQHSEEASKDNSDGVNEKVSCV
# Sequence of dopaminergic receptors D2 (P14416 whole entry): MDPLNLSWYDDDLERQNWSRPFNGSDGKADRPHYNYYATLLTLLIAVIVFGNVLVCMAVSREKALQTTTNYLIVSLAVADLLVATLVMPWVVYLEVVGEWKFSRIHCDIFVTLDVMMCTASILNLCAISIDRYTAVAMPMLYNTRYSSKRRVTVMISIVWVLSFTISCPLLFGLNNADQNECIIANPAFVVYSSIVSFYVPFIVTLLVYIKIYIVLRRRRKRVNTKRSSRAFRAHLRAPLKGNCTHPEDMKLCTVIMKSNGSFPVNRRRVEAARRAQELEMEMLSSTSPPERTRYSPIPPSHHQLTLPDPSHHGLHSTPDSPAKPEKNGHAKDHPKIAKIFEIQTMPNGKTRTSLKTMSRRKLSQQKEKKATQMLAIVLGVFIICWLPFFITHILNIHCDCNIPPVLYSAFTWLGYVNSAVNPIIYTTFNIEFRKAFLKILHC
SMILES,inhibition at 1 µM [1] [%],inhibition at 1 µM [2] [%],inhibition at 1 µM (receptors D4.4) [%],inhibition at 1 µM (5-HT2A receptor) [%],inhibition at 1 µM (5-HT2C receptor) [%],inhibition at 1 µM (5-HT6 receptor) [%],inhibition at 1 µM (α2C adrenergic receptors) [%],inhibition at 1 µM [3] [%]
"O=S(=O)(NC1CCN(CCCc2noc3cc(F)ccc23)C1)c1ccc2cc(Cl)ccc2c1 (stereo not shown) [Compound 23, 6-Chloro-N-[1-[3-(6-fluoro-1,2-benzoxazol-3-yl)propyl]pyrrolidin-3-yl]naphthalene-2-sulphonamide]",100,95,55,99,67,97,89,60
"O=S(=O)(NCC1CCN(CCOc2cccc3c2OCCO3)C1)c1ccc2c(c1)CCO2 (stereo not shown) [Compound 306, N-[[1-[2-(2,3-Dihydro-1,4-benzodioxin-5-yloxy)ethyl]pyrrolidin-3-yl]-methyl]-2,3-dihydrobenzofuran-5-sulphonamide]",51,26,33,81,36,45,98,57
